# Experimental data: US12583849B2, “KCNT1 inhibitors and methods of use” (Praxis Precision Medicines, Inc., priority 2020, dated 2026)
# Target: T1, KCNT1 (KNa1.1, Slack) (Homo sapiens, UniProt Q5JUK3)
# T1 construct: expressed in transfected cells; host or cells: HEK-TREX (tetracycline-inducible cell line)
# T1 sequence (Q5JUK3 1-1230): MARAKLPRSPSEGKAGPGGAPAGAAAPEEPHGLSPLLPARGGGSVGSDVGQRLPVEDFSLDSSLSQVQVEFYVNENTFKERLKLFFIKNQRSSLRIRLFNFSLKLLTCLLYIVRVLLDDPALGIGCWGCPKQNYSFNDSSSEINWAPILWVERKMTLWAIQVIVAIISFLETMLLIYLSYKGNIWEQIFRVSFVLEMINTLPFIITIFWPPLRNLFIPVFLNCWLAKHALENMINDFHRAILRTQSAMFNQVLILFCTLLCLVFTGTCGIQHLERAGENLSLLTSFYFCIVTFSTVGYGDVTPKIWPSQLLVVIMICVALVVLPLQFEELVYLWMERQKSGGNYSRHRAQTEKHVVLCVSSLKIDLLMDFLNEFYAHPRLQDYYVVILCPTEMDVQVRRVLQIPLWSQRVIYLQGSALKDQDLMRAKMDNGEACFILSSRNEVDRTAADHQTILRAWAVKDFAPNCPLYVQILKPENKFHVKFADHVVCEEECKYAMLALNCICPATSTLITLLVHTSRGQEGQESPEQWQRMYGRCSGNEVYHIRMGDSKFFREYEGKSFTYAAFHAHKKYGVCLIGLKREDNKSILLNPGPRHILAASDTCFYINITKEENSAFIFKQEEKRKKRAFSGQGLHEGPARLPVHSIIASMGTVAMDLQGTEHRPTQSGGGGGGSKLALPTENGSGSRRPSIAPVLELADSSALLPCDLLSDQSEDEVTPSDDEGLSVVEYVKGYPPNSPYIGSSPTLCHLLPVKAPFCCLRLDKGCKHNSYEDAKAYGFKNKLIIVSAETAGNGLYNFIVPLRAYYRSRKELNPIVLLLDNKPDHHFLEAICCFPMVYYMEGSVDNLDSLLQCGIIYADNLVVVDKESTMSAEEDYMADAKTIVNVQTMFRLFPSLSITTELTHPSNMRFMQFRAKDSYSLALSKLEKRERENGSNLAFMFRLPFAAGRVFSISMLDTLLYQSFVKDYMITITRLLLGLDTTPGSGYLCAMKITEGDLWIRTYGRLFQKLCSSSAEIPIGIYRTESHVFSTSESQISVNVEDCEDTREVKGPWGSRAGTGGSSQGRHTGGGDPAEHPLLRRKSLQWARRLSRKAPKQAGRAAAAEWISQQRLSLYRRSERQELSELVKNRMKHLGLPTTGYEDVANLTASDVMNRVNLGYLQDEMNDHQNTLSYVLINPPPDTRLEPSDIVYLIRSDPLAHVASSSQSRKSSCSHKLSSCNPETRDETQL
# Assay: KCNT1-WT-Basal Patch Clamp Assay
# Assay type: cell-based
# Conditions: tetracycline inducible cell line (HEK-TREX); SyncroPatch 384PE automated patch clamp, perforated patch mode, room temperature, step from -80 mV to 0 mV
# Method in brief: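 Tetracycline-inducible HEK-TREX cells expressing human KCNT1, recorded by automated perforated patch clamp (10 μM escin) at room temperature, with 4 mM external K+ at pH 7.4. Mean current taken during a 100 ms step from −80 mV to 0 mV, averaged over 3 sweeps. IC50 from Hill fit of % inhibition; otherwise % inhibition at top concentration.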
row,IC50 [nM],SMILES
1,1000 to 20000,"COC1CCC(C(=O)N[C@@H](C)c2nc(-c3ccnc(C(F)(F)F)c3)no2)CC1 (stereo partly drawn) [Compound I-69, (S)-4-methoxy-N-(1-(3-(2-(trifluoromethyl)pyridin-4-yl)-1,2,4-oxadiazol-5-yl)ethyl)cyclohexane-1-carboxamide]"
2,≤ 1000,"C[C@H](NC(=O)c1ccccc1)c1nc(-c2ccnc(C3CC3)c2)no1 [Compound I-41, (S)—N-(1-(3-(2-cyclopropylpyridin-4-yl)-1,2,4-oxadiazol-5-yl)ethyl)benzamide]"
3,≤ 1000,"CCOc1cc(-c2noc([C@H](C)NC(=O)C3CCCC3)n2)ccn1 [Compound I-45, (S)—N-(1-(3-(2-ethoxypyridin-4-yl)-1,2,4-oxadiazol-5-yl)ethyl)cyclopentanecar-boxamide]"
4,≥ 20000,"C[C@H](NC(=O)C1CCCN(C)C1)c1nc(-c2ccnc(C(F)(F)F)c2)no1 (stereo partly drawn) [Compound I-68, 1-methyl-N—((S)-1-(3-(2-(trifluoromethyl)pyridin-4-yl)-1,2,4-oxadiazol-5-yl)ethyl)piperidine-3-carboxamide]"
5,≥ 20000,"CC(NC(=O)c1cn2c(n1)CCCC2)c1nc(-c2cccc(F)c2)no1 (stereo not drawn) [Compound I-52, N-[1-[3-(3-fluorophenyl)-1,2,4-oxadiazol-5-yl]ethyl]-5,6,7,8-tetrahydroimidazo[1,2-a]pyridine-2-carboxamide]"
6,1000 to 20000,"CCn1nc(C)c(C(=O)N[C@@H](C)c2nc(-c3cccc(F)c3)no2)n1 [Compound I-40, (S)-2-ethyl-N-(1-(3-(3-fluorophenyl)-1,2,4-oxadiazol-5-yl)ethyl)-5-methyl-2H-1,2,3-triazole-4-carboxamide]"
7,≥ 20000,"C[C@H](NC(=O)c1ccncc1)c1nc(-c2ccnc(C(F)(F)F)c2)no1 [Compound I-6, (S)—N-(1-(3-(2-(trifluoromethyl)pyridin-4-yl)-1,2,4-oxadiazol-5-yl)ethyl)isonicotinamide]"
8,≤ 1000,"C[C@H](NC(=O)c1ccc(Br)s1)c1nc(-c2ccnc(C3CC3)c2)no1 [Compound I-57, (S)-5-bromo-N-(1-(3-(2-cyclopropylpyridin-4-yl)-1,2,4-oxadiazol-5-yl)ethyl)thiophene-2-carboxamide]"
9,≥ 20000,"CC(=O)N1CCCCC1C(=O)N[C@@H](C)c1nc(-c2ccnc(C(F)(F)F)c2)no1 (mixture of isomers) [Compound I-86, 1-acetyl-N-[(1S)-1-[3-[2-(trifluoromethyl)-4-pyridyl]-1,2,4-oxadiazol-5-yl]ethyl]piperidine-2-carboxamide]"
10,≤ 1000,C[C@H](NC(=O)N(C)C(C)(C)C)c1nc(-c2ccnc(C3CC3)c2)no1 [II-9]
11,≤ 1000,"Cc1cccc(C(=O)N[C@@H](C)c2nc(-c3ccnc(C4CC4)c3)no2)c1 [Compound I-81, N-[(1S)-1-[3-(2-cyclopropyl-4-pyridyl)-1,2,4-oxadiazol-5-yl]ethyl]-3-methyl-benzamide]"
12,≤ 1000,"C[C@H](NC(=O)[C@H]1CC[C@H](C)CC1)c1nc(-c2ccnc(C(F)(F)F)c2)no1 [Compound I-26, trans-4-methyl-N—((S)-1-(3-(2-(trifluoromethyl)pyridin-4-yl)-1,2,4-oxadiazol-5-yl)ethyl)cyclohexane-1-carboxamide]"
13,≤ 1000,"C[C@H](NC(=O)c1ccc(Cl)cc1Cl)c1nc(-c2ccnc(C3CC3)c2)no1 [Compound I-94, (S)-2,4-dichloro-N-(1-(3-(2-cyclopropylpyridin-4-yl)-1,2,4-oxadiazol-5-yl)ethyl)benzamide]"
14,≤ 1000,C[C@H](NC(=O)C(C)(C)C)c1nc(-c2ccnc(C3CC3)c2)no1 [III-5]
15,≤ 1000,"C[C@H](NC(=O)[C@H](C)c1ccccc1)c1nc(-c2ccnc(C(F)(F)F)c2)no1 [Compound I-17, (R)-2-phenyl-N—((S)-1-(3-(2-(trifluoromethyl)pyridin-4-yl)-1,2,4-oxadiazol-5-yl)ethyl)propanamide]"
